Reference: patent US12173002B2, “PRMT5 inhibitors and methods of use” (SHANGHAI APEIRON THERAPEUTICS COMPANY LIMITED, priority 2022, dated 2024)

Columns and labels:
[1] = molecular target: hERG ion channel (Homo sapiens, UniProt Q12809); test: hERG ion channel inhibition experiment (manual patch clamp, HEK293 cells); assay type: cell-based; conditions: HEK293 cells stably expressing hERG, whole-cell patch clamp, n=2
Procedure: III. hERG Ion Channel Inhibition Experiment
(§1) The compounds used in this experiment are specific embodiments of the present invention, with reference to compound AMG473 as an example from Amgen's patent WO 2022/169948A1, identified as example 473.
2. Cell Line and Cell Culture
Stably expressing hERG ion channel HEK293 cell line (Catalog: K1236) was purchased from Invitrogen. This cell line was cultured in a medium containing 85% DMEM, 10% dialyzed fetal bovine serum, 0.1 mM non-essential amino acid solution, 100 U/mL penicillin-streptomycin solution, 25 mM HEPES, 5 μg/mL blasticidin, and 400 μg/mL geneticin. When the cell density reached 40%˜80% of the culture dish area, digestion was performed using trypsin, and cells were passaged three times per week. Before the experiment, cells were cultured at a density of 5×10′ in 3.5 cm culture dishes, induced with […] Doxycycline for 48 hours. Subsequently, cells were digested and seeded onto slides for subsequent manual patch clamp experiments.)
3. Experimental Procedure
• 1) Place glass slides containing HEK293 cells in the perfusion chamber of the micro-manipulation station. • 2) Under an Olympus IX71 or IX73 inverted microscope, position suitable cells in the central field of view using a ×10 objective. Locate the tip of the glass electrode in the central field. Use the micromanipulator to lower the electrode while adjusting the coarse focus spiral to slowly approach the cell. • 3) When approaching the cell rapidly, switch to a ×40 objective for observation. Fine-tune the electrode approach using the micromanipulator to gradually reach the cell's surface. • 4) Apply negative pressure to establish 1GQ seal between the electrode tip and the cell membrane. • 5) Compensate for the transient capacitance current Cfast under voltage clamp mode. Then, repeat the brief negative pressure application for membrane rupture, ultimately reaching the whole-cell recording mode. • 6) Under voltage clamp at −60 mV, compensate for slow capacitance current Cslow, cell membrane capacitance (Cm), and input membrane resistance (Ra). • 7) Once the cell is stable, change the clamping voltage to −90 mV, set the sampling frequency to 20 kHz, and the filtering frequency to 10 kHz. Leak current detection conditions involve changing the clamping voltage to −80 mV for a duration of 500 ms. • 8) The hERG current testing method is as follows: Apply a 4.8-second depolarization command voltage to depolarize the membrane potential from −80 mV to +30 mV, then instantly apply a 5.2-second repolarization voltage to reduce the membrane potential to −50 mV to remove channel inactivation, allowing observation of the hERG tail current. The peak of the tail current represents the size of the hERG current. • 9) The hERG current […] is continuously recorded for 120 seconds before administration to assess the stability of the tested cells in producing hERG currents. Only stable cells within an acceptable range are eligible for subsequent compound testing. • 10) Testing the inhibitory effect of the test compound on hERG current: First, determine the baseline of hERG current obtained in extracellular fluid containing 0.1% DMSO. After maintaining stable hERG current for at least 5 minutes, sequentially perfuse the solution containing the test compound around the cells from low to high concentrations. After each perfusion, wait for about 5 minutes to allow the compound to act on the cells and simultaneously record hERG currents. Record the last 5 hERG current values after the recorded current stabilizes, and take their average as the final current value at a specific concentration. […] Meanwhile, positive compound dofetilide is synchronously detected before and after the end of the test drug experiment using the same patch clamp system to ensure the reliability and sensitivity of the entire detection system. The above test steps will be repeated on two separate test cells (n=2). 4. Data Analysis […]

[2] = test system: HCT-116 MTAP(−/−) deficient cells; test: Inhibitory activity on proliferation of HCT-116 MTAP(−/−) deficient cells (Cell-Titer Glo, 8 days); assay type: cell-based; conditions: Homo sapiens, HCT-116, 192 h, 8 days incubation
Procedure: Test 1: Compound's inhibitory activity on proliferation of HCT-116 MTAP(−/−) deficient cells. P Materials and Cells: HCT-116 MTAP(−/−) deficient cells obtained from Kyinno Bio (China); RPMI-1640 medium, fetal bovine serum, and penicillin-streptomycin purchased from Thermo Fisher Scientific (America); 384-well plates from PerkinElmer (America); Cell-Titer Glo assay kit from Promega (America).
Cell Culture: HCT116 MTAP(−/−) deficient cells were cultured in RPMI 1640 medium containing 10% fetal bovine serum and 1% penicillin-streptomycin at 37° C., 5% CO2. Only cells in logarithmic growth phase were used for experiments.
(§2) Cell Proliferation Inhibition Assay: The compound's inhibitory activity on HCT-116 MTAP(−/−) deficient cells was assessed using the Cell-Titer Glo assay kit. Adjusting cell concentration, 40 μL was seeded into a 384-well plate and cultured overnight at 37° C., 5% CO2. Each well received 40 nL of the compound, achieving concentrations from 0 to 10,000 nM (starting concentration 10,000 nM, 3-fold dilution, 10 points), with 0.1% DMSO. The cell plate was incubated for 8 days at 37° C., 5% CO2. Cell-Titer Glo reagent (40 μL) was added to measure cell viability.

[3] = Mouse pharmacokinetic experiment; assay type: in vivo; conditions: male, ICR mice, plasma
Procedure: II. Mouse Pharmacokinetic Experiment 1. Test Compounds
as §1
ICR male mice, N=3/group; sourced from Zhejiang Vital River Laboratory Animal Technology Co., Ltd.
3. Drug Preparation and Administration
(§3) Single oral (PO) administration to ICR mice: Compounds were dissolved in dimethyl sulfoxide, added to polyethylene glycol 400 and sterile water, and then adjusted to a clear solution with a small amount of 1 mol/L hydrochloric acid. After overnight fasting, the mice were orally gavaged with a dose of 10 mg/kg.
as §3, with “intravenous (IV)” for “oral (PO)”, “received tail vein injections” for “were orally gavaged”, “3” for “10”
Approximately 30 μL/time point blood samples were collected via the tail vein. Potassium ethylenediaminetetraacetate was used as an anticoagulant, and samples were centrifuged at 4000 g/min for 5 minutes at 4° C. within 1 hour. Blood sampling time points were 0.0833 (IV), 0.25, 0.5, 1, 2, 4, 6, 8, 24 hours. Samples were stored in a −20° C. freezer.
Plasma samples (30 μL, 10 μL sample+20 μL blank plasma) were mixed with 200 μL ice-cold acetonitrile containing internal standards. After vortexing for 30 seconds, samples were centrifuged at 4000 g/min for 20 minutes. One hundred microliters of the supernatant were transferred to a 96-well plate, followed by the addition of 200 μL ultrapure water. After vortexing for 30 seconds, 5 μL or 10 μL were injected into LC-MS/MS for analysis.

[4] = test system: HCT-116 MTAP wild-type cells; test: Inhibitory activity on proliferation of HCT-116 MTAP wild-type cells (Cell-Titer Glo, 8 days); assay type: cell-based; conditions: Homo sapiens, HCT-116, 192 h, 8 days incubation
Procedure: Test 2: Compound's inhibitory activity on proliferation of HCT-116 MTAP wild-type cells.
Materials and Cells: HCT-116 MTAP wild-type cells obtained from Kyinno Bio (China); RPMI-1640 medium, fetal bovine serum, and penicillin-streptomycin purchased from Thermo Fisher Scientific (America); 384-well plates from PerkinElmer (America); Cell-Titer Glo assay kit from Promega (America).
Cell Culture: HCT116 MTAP wild-type cells were cultured in RPMI 1640 medium containing 10% fetal bovine serum and 1% penicillin-streptomycin at 37° C., 5% CO2. Only cells in logarithmic growth phase were used for experiments.
as §2, with “MTAP wild-type” for “MTAP(−/−) deficient”

Sequence of hERG ion channel (Q12809 whole entry): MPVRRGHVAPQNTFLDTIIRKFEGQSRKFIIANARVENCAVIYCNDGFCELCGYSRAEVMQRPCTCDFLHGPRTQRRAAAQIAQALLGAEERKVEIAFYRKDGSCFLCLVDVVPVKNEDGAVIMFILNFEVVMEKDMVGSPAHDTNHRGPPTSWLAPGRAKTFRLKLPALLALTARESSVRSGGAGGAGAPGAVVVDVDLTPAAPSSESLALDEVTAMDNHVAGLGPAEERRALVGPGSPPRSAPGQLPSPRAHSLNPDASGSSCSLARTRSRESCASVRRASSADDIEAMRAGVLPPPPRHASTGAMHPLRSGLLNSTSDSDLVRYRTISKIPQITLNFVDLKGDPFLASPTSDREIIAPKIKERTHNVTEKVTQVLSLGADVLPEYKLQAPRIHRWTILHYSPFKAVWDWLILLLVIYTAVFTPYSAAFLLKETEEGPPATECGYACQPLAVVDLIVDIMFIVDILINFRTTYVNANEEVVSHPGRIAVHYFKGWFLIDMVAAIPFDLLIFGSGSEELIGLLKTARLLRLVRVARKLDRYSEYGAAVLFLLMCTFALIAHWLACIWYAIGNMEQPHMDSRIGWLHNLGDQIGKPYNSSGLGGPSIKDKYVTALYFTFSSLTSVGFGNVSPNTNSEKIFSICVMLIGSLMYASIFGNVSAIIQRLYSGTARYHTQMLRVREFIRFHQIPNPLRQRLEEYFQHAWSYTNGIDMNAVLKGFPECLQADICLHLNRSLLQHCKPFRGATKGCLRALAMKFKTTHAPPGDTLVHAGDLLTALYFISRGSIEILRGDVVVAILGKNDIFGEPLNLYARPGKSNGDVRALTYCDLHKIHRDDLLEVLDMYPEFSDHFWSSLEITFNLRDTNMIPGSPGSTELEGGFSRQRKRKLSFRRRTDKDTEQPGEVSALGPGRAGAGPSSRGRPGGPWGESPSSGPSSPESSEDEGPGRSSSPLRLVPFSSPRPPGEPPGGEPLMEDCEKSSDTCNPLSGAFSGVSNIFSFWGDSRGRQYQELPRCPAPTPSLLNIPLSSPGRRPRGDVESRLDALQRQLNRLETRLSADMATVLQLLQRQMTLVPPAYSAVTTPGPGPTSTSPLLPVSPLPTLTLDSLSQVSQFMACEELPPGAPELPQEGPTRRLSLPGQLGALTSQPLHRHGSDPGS

SMILES | AUC(0-t) ([3]; IV 3 mg/kg) [ng·h/mL] | AUC(0-t) ([3]; PO 10 mg/kg) [ng·h/mL] | half-life ([3]; IV 3 mg/kg) [h] | half-life ([3]; PO 10 mg/kg) [h] | IC50 [1] [nM] | IC50 [2] [nM] | bioavailability ([3]; PO 10 mg/kg vs IV 3 mg/kg, read-out: Bioavailability F) [%] | IC50 [4] [nM]
CN(C(=O)c1ccc2nc(N)c3cncn3c2c1)[C@@H]1COc2cc(S(F)(F)(F)(F)F)ccc21 (single isomer, unassigned) [Example 104] | 10500 | 26500 | 6.1 | 5.02 | 1510 | 4.6 | 74 | 591
[2H]C([2H])([2H])N(C(=O)c1cc2c(cc1F)nc(N)c1cncn12)[C@@H]1COc2cc(C(F)(F)F)ccc21 [Example 41, (S)-4-amino-7-fluoro-N-(methyl-d3)-N-(6-(trifluoromethyl)-2,3-dihydrobenzofuran-3-yl)imidazo[1,5-a] quinoxaline-8-carboxamide] | 5420 | 46300 | 4.3 | 4.12 | 8160 | – | – | –
CN(C(=O)c1ccc2nc(N)c3cncn3c2c1)[C@@H]1COc2cc(C(F)(F)F)ccc21 [Example 107, (S)-4-amino-N-methyl-N-(6-(trifluoromethyl)-2,3-dihydrobenzofuran-3-yl)imidazo[1,5-a] quinoxaline-8-carboxamide] | 11200 | 44100 | 4.53 | 4.56 | 4500 | – | – | –

Now from value to compound, other results behind:

AUC(0-t) ([3]; IV 3 mg/kg) [ng·h/mL] | AUC(0-t) ([3]; PO 10 mg/kg) [ng·h/mL] | half-life ([3]; IV 3 mg/kg) [h] | half-life ([3]; PO 10 mg/kg) [h] | SMILES | IC50 [1] [nM] | IC50 [2] [nM] | bioavailability ([3]; PO 10 mg/kg vs IV 3 mg/kg, read-out: Bioavailability F) [%] | IC50 [4] [nM]
8090 | 21000 | 4.06 | 2.67 | CN(C(=O)c1cc2c(cn1)nc(N)c1cncn12)[C@@H]1COc2cc(C(F)(F)F)ccc21 [Example 4, (S)-4-amino-N-methyl-N-(6-(trifluoromethyl)-2,3-dihydrobenzofuran-3-yl)imidazo[1,5-a] pyrido[3,4-e] pyrazine-8-carboxamide] | 5290 | – | – | –
9710 | 42500 | 3.65 | 3.31 | [2H]C([2H])([2H])N(C(=O)c1ccc2nc(N)c3cncn3c2c1)[C@@H]1COc2cc(C(F)(F)F)ccc21 [Example 16, (S)-4-amino-N-(methyl-d3)-N-(6-(trifluoromethyl)-2,3-dihydrobenzofuran-3-yl)imidazo[1,5-a] quinoxaline-8-carboxamide] | 2300 | – | – | –
10800 | 28300 | 4.5 | 3.34 | CN(C(=O)c1ccc2nc(N)c3cncn3c2c1)[C@@H]1COc2cc(C(F)(F)C(F)(F)F)ccc21 [Example 130, (S)-4-amino-N-methyl-N-(6-(perfluoroethyl)-2,3-dihydrobenzofuran-3-yl)imidazo[1,5-a] quinoxaline-8-carboxamide] | 1360 | – | – | –
